Measurements published in paper PMC7377239, “Cardiovascular Effects of Polychlorinated Biphenyls and Their Major Metabolites” (Environmental Health Perspectives, 2020).
Where a name gives a salt, the structure may show the parent alone. Read-outs that look alike come from different tables or passages of the source.

Tested on: iCell cardiomyocytes (human iPSC-derived cardiomyocytes)
Assay: High-content imaging of cytotoxicity and mitochondrial integrity in iPSC-CMs
Format: cell-based
Details: Homo sapiens; for viability at 0.01 µM / activity at 0.01 µM / viability at 0.1 µM / activity at 0.1 µM / viability at 1 µM / activity at 1 µM / viability at 10 µM / activity at 10 µM / viability at 100 µM / activity at 100 µM: Cardiomyocyte, 0.00 µM = 100.00; for viability at 0.1 µM / activity at 0.1 µM: 0.10 µM; for minimal effective concentration: iPSC-CM
How it was run: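 Human iPSC-derived cardiomyocytes were seeded on gelatin-coated 384-well plates at 5,000 cells per well and maintained for 12 d. Test chemicals were added as 10μL of 5× solutions to final concentrations of 0.01 to 100μM. Cells were stained with Hoechst 33342 and MitoTracker™ Orange, fixed in formaldehyde, and imaged by confocal high-content microscopy at 10× magnification.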

[1] = 1.5 h, read-out: cm.cam.90min POD
[2] = 1.5 h, read-out: cm.mii.90min POD
[3] = 1.5 h, read-out: cm.mito.90min POD
[4] = 1.5 h, read-out: cm.tc.90min POD
[5] = 24 h, read-out: cm.cam.24hrs POD
[6] = 24 h, read-out: cm.mii.24hrs POD
[7] = 24 h, read-out: cm.mito.24hrs POD
[8] = 24 h, read-out: cm.tc.24hrs POD

Oc1ccc(-c2cccc(Cl)c2)cc1Cl [4-OH PCB11]
viability at 0.01 µM (1.5 h, read-out: cm.cam.90min): 94.9%
activity at 0.01 µM (1.5 h, read-out: cm.mii.90min): 115%
activity at 0.01 µM (1.5 h, read-out: cm.mito.90min): 94.7%
viability at 0.01 µM (1.5 h, read-out: cm.tc.90min): 94.7%
viability at 0.1 µM (1.5 h, read-out: cm.cam.90min): 95%
activity at 0.1 µM (1.5 h, read-out: cm.mii.90min): 108%
activity at 0.1 µM (1.5 h, read-out: cm.mito.90min): 95%
viability at 0.1 µM (1.5 h, read-out: cm.tc.90min): 95%
viability at 1 µM (1.5 h, read-out: cm.cam.90min): 99.1%
activity at 1 µM (1.5 h, read-out: cm.mii.90min): 113%
activity at 1 µM (1.5 h, read-out: cm.mito.90min): 98.6%
viability at 1 µM (1.5 h, read-out: cm.tc.90min): 98.8%
viability at 10 µM (1.5 h, read-out: cm.cam.90min): 106%
activity at 10 µM (1.5 h, read-out: cm.mii.90min): 93.6%
activity at 10 µM (1.5 h, read-out: cm.mito.90min): 106%
viability at 10 µM (1.5 h, read-out: cm.tc.90min): 106%
viability at 100 µM (1.5 h, read-out: cm.cam.90min): 0.0234%
activity at 100 µM (1.5 h, read-out: cm.mii.90min): 157%
activity at 100 µM (1.5 h, read-out: cm.mito.90min): 0.0462%
viability at 100 µM (1.5 h, read-out: cm.tc.90min): 0.09%
viability at 0.01 µM (24 h, read-out: cm.cam.24hrs): 90.8%
activity at 0.01 µM (24 h, read-out: cm.mii.24hrs): 101%
activity at 0.01 µM (24 h, read-out: cm.mito.24hrs): 86.2%
viability at 0.01 µM (24 h, read-out: cm.tc.24hrs): 90.8%
viability at 0.1 µM (24 h, read-out: cm.cam.24hrs): 100%
activity at 0.1 µM (24 h, read-out: cm.mii.24hrs): 111%
activity at 0.1 µM (24 h, read-out: cm.mito.24hrs): 97.6%
viability at 0.1 µM (24 h, read-out: cm.tc.24hrs): 99.9%
viability at 1 µM (24 h, read-out: cm.cam.24hrs): 98.4%
activity at 1 µM (24 h, read-out: cm.mii.24hrs): 100%
activity at 1 µM (24 h, read-out: cm.mito.24hrs): 96.4%
viability at 1 µM (24 h, read-out: cm.tc.24hrs): 98.7%
viability at 10 µM (24 h, read-out: cm.cam.24hrs): 93.1%
activity at 10 µM (24 h, read-out: cm.mii.24hrs): 96.5%
activity at 10 µM (24 h, read-out: cm.mito.24hrs): 90.8%
viability at 10 µM (24 h, read-out: cm.tc.24hrs): 93.5%
viability at 100 µM (24 h, read-out: cm.cam.24hrs): 0.0471%
activity at 100 µM (24 h, read-out: cm.mii.24hrs): 1.84%
activity at 100 µM (24 h, read-out: cm.mito.24hrs): 0.024%
viability at 100 µM (24 h, read-out: cm.tc.24hrs): 0.11%
minimal effective concentration [1]: 27.7 µM
minimal effective concentration [2]: 32.7 µM
minimal effective concentration [3]: 40.1 µM
minimal effective concentration [4]: 36.2 µM
minimal effective concentration [5]: 8.57 µM
minimal effective concentration [6]: 43.2 µM
minimal effective concentration [7]: 7.94 µM
minimal effective concentration [8]: 8.62 µM

O=S(=O)(O)Oc1cc(Cl)ccc1-c1ccccc1 [2-yl PCB 3 sulfate]
viability at 0.01 µM (1.5 h, read-out: cm.cam.90min): 88.1%
activity at 0.01 µM (1.5 h, read-out: cm.mii.90min): 116%
activity at 0.01 µM (1.5 h, read-out: cm.mito.90min): 87.6%
viability at 0.01 µM (1.5 h, read-out: cm.tc.90min): 88.3%
viability at 0.1 µM (1.5 h, read-out: cm.cam.90min): 98.3%
activity at 0.1 µM (1.5 h, read-out: cm.mii.90min): 105%
activity at 0.1 µM (1.5 h, read-out: cm.mito.90min): 98.4%
viability at 0.1 µM (1.5 h, read-out: cm.tc.90min): 98.4%
viability at 1 µM (1.5 h, read-out: cm.cam.90min): 105%
activity at 1 µM (1.5 h, read-out: cm.mii.90min): 88.6%
activity at 1 µM (1.5 h, read-out: cm.mito.90min): 105%
viability at 1 µM (1.5 h, read-out: cm.tc.90min): 105%
viability at 10 µM (1.5 h, read-out: cm.cam.90min): 100%
activity at 10 µM (1.5 h, read-out: cm.mii.90min): 96.5%
activity at 10 µM (1.5 h, read-out: cm.mito.90min): 101%
viability at 10 µM (1.5 h, read-out: cm.tc.90min): 101%
viability at 100 µM (1.5 h, read-out: cm.cam.90min): 104%
activity at 100 µM (1.5 h, read-out: cm.mii.90min): 81%
activity at 100 µM (1.5 h, read-out: cm.mito.90min): 105%
viability at 100 µM (1.5 h, read-out: cm.tc.90min): 105%
viability at 0.01 µM (24 h, read-out: cm.cam.24hrs): 99.2%
activity at 0.01 µM (24 h, read-out: cm.mii.24hrs): 94.5%
activity at 0.01 µM (24 h, read-out: cm.mito.24hrs): 100%
viability at 0.01 µM (24 h, read-out: cm.tc.24hrs): 101%
viability at 0.1 µM (24 h, read-out: cm.cam.24hrs): 101%
activity at 0.1 µM (24 h, read-out: cm.mii.24hrs): 102%
activity at 0.1 µM (24 h, read-out: cm.mito.24hrs): 101%
viability at 0.1 µM (24 h, read-out: cm.tc.24hrs): 101%
viability at 1 µM (24 h, read-out: cm.cam.24hrs): 101%
activity at 1 µM (24 h, read-out: cm.mii.24hrs): 102%
activity at 1 µM (24 h, read-out: cm.mito.24hrs): 103%
viability at 1 µM (24 h, read-out: cm.tc.24hrs): 101%
viability at 10 µM (24 h, read-out: cm.cam.24hrs): 102%
activity at 10 µM (24 h, read-out: cm.mii.24hrs): 85.7%
activity at 10 µM (24 h, read-out: cm.mito.24hrs): 102%
viability at 10 µM (24 h, read-out: cm.tc.24hrs): 102%
viability at 100 µM (24 h, read-out: cm.cam.24hrs): 98.3%
activity at 100 µM (24 h, read-out: cm.mii.24hrs): 91.6%
activity at 100 µM (24 h, read-out: cm.mito.24hrs): 99.6%
viability at 100 µM (24 h, read-out: cm.tc.24hrs): 98.5%
minimal effective concentration [1]: 100 µM
minimal effective concentration [2]: 7.39 µM
minimal effective concentration [3]: 100 µM
minimal effective concentration [4]: 100 µM
minimal effective concentration [5]: 100 µM
minimal effective concentration [6]: 100 µM
minimal effective concentration [7]: 100 µM
minimal effective concentration [8]: 100 µM
